From US20190381127A1, “COMBINATION THERAPY WITH A6, CHEMOTHERAPEUTIC AGENTS, RADIATION THERAPY, OR A COMBINATION THEREOF FOR THE TREATMENT OF CANCER” (Splash Pharmaceuticals, Inc., priority 2016, published 2019)

Legend:
[1] = system: IGROV-1/CP cells; assay: CCK-8 cytotoxicity, A6 plus DDP; format: cell-based, human
Procedure: Study Conditions. Drugs: […] Drug exposure time: 1 hour; Cell line: IGROV-1 and its DDP-resistant subline IGROV-1/CP; Media: RPMI 1640 plus 10% FBS containing 1 mM penicillin/streptomycin; Cytotoxicity Assays: CCK-8 (Cell Counting Kit 8—Dojindo Molecular Technologies). Tissue culture plates containing 96-well plates were seeded with 4000 cells in 100 μl of media per well. The wells on rows A-D were seeded with IGROV-1 cells, while the wells on rows E-H were seeded with IGROV-1/CP cells. […] After 1 h, increasing concentrations of DDP were added to triplicate wells in […] medium. […] The cells were then allowed to grow for 96 h following which the plates were assayed for relative cell growth with the CCK-8 assay. CCK-8 assay. […] of CCK-8 stain was added to each well and the plate was incubated at 37° C. incubator for 4 h. The plate was read with a microplate reader at a wavelength of 450 nm. (See FIGS. 7A-7D and FIG. 8). The assay was performed using triplicate wells for each DDP concentration. The data in the tables below is the optical density in the well which is a function of the number of live cells remaining at the end of the 96 h growth period.

[2] = system: U87MG human glioma cells; assay: Subcutaneous glioma xenograft; format: in vivo, BALB/c (nu/nu) mice
Procedure: (§1) Glioblastoma: In animal models of glioblastoma, U87MG human glioma cells were implanted subcutaneously or intracranially in BALB/c (nu/nu) mice and the animals were divided into different treatment groups. […] In this study the effects of cisplatin were also examined.

[3] = system: HEY/C2 (DDP resistant) cells; assay: CCK-8 cytotoxicity of DDP/PTX with or without A6; format: cell-based; conditions: 72 hours
Procedure: The cells were plated in 96-well plates as described and incubated overnight. […] The CCK-8 assay described herein was performed to access cytotoxicity of DDP/PTX.

[4] = system: U87MG human glioma cells; assay: Intracranial glioma xenograft; format: in vivo, BALB/c (nu/nu) mice
Procedure: as §1

[5] = system: A2780/CP cells; assay: CCK-8 cytotoxicity, A6 plus DDP; format: cell-based, human
Procedure: Study Conditions. Drugs: […] Drug exposure time: 1 hour; Cell line: […] Media: RPMI 1640 plus 10% FBS containing 1 mM penicillin/streptomycin; Cytotoxicity Assays: CCK-8 (Cell Counting Kit 8-Dojindo Molecular Technologies). Tissue culture plates containing 96-well plates were seeded with 4000 cells in 100 μl of media per well. The wells on rows A-[…] cells, while the wells on rows E-[…]/CP cells. […] After 1 h, increasing concentrations of DDP were added to triplicate wells in 100 μl medium. […] The cells were then allowed to grow for 96 h following which the plates were assayed for relative cell growth with the CCK-8 assay. CCK-8 assay. Five μl of CCK-8 stain was added to each well and the plate was incubated at 37° C. incubator for 4 h. The plate was read with a microplate reader at a wavelength of 450 nm. (See FIGS. 5A-5D and FIG. 6). The assay was performed using triplicate wells for each DDP concentration. The data in the tables below is the optical density in the well which is a function of the number of live cells remaining at the end of the 96 h growth period.

[6] = target: T1, CD44 on B16-F10 melanoma cells (UniProt P15379 23-778); assay: cell-based or functional assay
T1 sequence (looked up): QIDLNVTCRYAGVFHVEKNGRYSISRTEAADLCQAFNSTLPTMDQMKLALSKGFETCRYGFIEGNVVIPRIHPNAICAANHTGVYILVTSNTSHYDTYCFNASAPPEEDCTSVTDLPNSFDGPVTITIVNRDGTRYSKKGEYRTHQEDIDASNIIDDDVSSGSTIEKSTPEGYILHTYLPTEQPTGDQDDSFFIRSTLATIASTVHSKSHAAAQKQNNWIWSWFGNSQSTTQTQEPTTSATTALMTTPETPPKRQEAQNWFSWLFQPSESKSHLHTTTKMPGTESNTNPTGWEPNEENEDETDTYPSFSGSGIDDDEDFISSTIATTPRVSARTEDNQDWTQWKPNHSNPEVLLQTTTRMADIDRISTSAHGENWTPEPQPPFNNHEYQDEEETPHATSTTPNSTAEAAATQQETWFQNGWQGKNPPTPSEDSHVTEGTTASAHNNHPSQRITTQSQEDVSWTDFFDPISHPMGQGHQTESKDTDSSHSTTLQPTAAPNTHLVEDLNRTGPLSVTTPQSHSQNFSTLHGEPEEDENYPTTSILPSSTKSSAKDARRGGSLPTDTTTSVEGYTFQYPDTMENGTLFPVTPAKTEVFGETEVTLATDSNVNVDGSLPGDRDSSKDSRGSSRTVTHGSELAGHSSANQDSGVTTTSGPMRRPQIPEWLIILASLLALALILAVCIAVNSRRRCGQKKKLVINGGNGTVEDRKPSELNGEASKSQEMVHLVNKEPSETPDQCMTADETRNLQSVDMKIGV

How did the “resistance of the cells to DDP” value [1] turn out when `N.N.[Cl][Pt][Cl]` [cisplatin, reference compound] was run?
Its value is “appeared not to be resistant”.

And the “inhibition of subcutaneous tumor growth” value [2]?
The value was 53%.

What about the “IC50 in HEY/C2 cells compared to HEY cells” value [3] of the same molecule?
The value was “about 7 fold”.

What about the “inhibition of tumor growth” value [4] of the same molecule?
The value was 82%.

What about the “resistance of the cells to DDP” value [5] of the same molecule?
The value was “not very resistant”.

How did the “resistance of HEY/C2 cells compared to HEY cells” value [3] turn out when `CC(=O)O[C@H]1C(=O)[C@@]2(C)[C@H]([C@H](OC(=O)c3ccccc3)[C@]3(O)C[C@H](OC(=O)[C@H](O)[C@@H](NC(=O)c4ccccc4)c4ccccc4)C(C)=C1C3(C)C)[C@]1(OC(C)=O)CO[C@@H]1C[C@@H]2O` [paclitaxel, reference compound] was run?
The value was “resisted to paclitaxel”.

Ac-KPSSPPEE-NH2 [A6 peptide (Ac-KPSSPPEE-NH2)] was tested. Which “IC50 for A6 inhibition of chemotaxis in B16-F10 cells” value [6] did it give?
Its value is 29 nM.
